Measured values reported in ChEMBL document CHEMBL3430912, “GSK Tres Cantos Anti-Kinetoplastid Screening (TCAKS) Data”.

Tests used:
[1] = test system: Trypanosoma cruzi; experiment: GSK_TCAKS: pIC50 Trypanosoma cruzi viability assay using beta-GAL activity. This assay was run at single shot at 5uM compound concentration per well. The biological reagents consisted of NIH-3T3 host cells and trypomastigotes parasitic cells; both cell types were set to a 3.3 * 10^5 cells/mL dilution in assay DMEM by means of a CASY cell counter device using a 60um capillary. 6 uL of the mixture were dispensed per well (about 1 * 10^3 host-cells and 1 * 10^3 parasites) with a Multidrop Combi dispenser. […] In all wells, the percentage of DMSO never exceeded 0.5%. Plates incubated for four days at 37C, 5% CO2. The substrate used for the assay fluorescence intensity (FLINT) readout was resorufin-beta-D-galactopiranoside (Sigma-Aldrich) at 5uM per well. It was diluted in PBS supplemented with the soft detergent Igepal (Fluka).; assay type: functional, organism-based, Mus musculus; conditions: Tulahuen, NIH3T3
[2] = test system: Trypanosoma cruzi; experiment: (§1) GSK_TCAKS: pIC50 Trypanosoma cruzi Imaging: Infected Cells. […] Cells were then washed once with PBS before infection. T. cruzi trypomastigotes, collected at days 5 to 8 after infection from LLC-MK2 parasite infected cultures, were allowed to swim out for 4h at 37C from a centrifuged pellet (2,500 rpm/10 min/room temperature). Trypomastigotes were then collected and counted in a CASY Cell Counter. Trypomastigotes, in supplemented DMEM, were added to H9c2 cultures in a multiplicity of infection of 1 and incubated for 18 h. Cells were washed once with PBS before incubation of the infected H9c2 monolayer with trypsin (Life-Technologies) to detach cells from the flask. Cells were counted in a CASY Cell Counter using a 150 um capillary and their density set at 5 * 10^4 cells per mL in supplemented assay DMEM. Infected H9c2 were dispensed into 384-well poly-lysine coated assay plates at 50uL per well using a Multidrop Combi dispenser. After seeding them, the plates were incubated at 37C, 5% CO2 for 72h. Cultures were then fixed and stained by addition of 50 uL of a solution containing 8% formaldehyde and 4 uM DRAQ5 DNA dye (BioStatus, UK) per well. […] Five images were collected per well for reliable statistical analysis. Automated image analysis was performed with a script developed on Acapella High Content Imaging and Analysis Software (PerkinElmer). Output: percentage of infected cells per well as a second infection marker.; assay type: functional, organism-based, Rattus norvegicus; conditions: H9c2, 4 h
[3] = test system: Trypanosoma cruzi; experiment: GSK_TCAKS: pIC50 Trypanosoma cruzi Imaging: Amastigotes/Cell. […] Cells were then washed once with PBS before infection. T. cruzi trypomastigotes, collected at days 5 to 8 after infection from LLC-MK2 parasite infected cultures, were allowed to swim out for 4h at 37C from a centrifuged pellet (2,500 rpm/10 min/room temperature). Trypomastigotes were then collected and counted in a CASY Cell Counter. Trypomastigotes, in supplemented DMEM, were added to H9c2 cultures in a multiplicity of infection of 1 and incubated for 18 h. Cells were washed once with PBS before incubation of the infected H9c2 monolayer with trypsin (Life-Technologies) to detach cells from the flask. Cells were counted in a CASY Cell Counter using a 150 um capillary and their density set at 5 * 10^4 cells per mL in supplemented assay DMEM. Infected H9c2 were dispensed into 384-well poly-lysine coated assay plates at 50uL per well using a Multidrop Combi dispenser. After seeding them, the plates were incubated at 37C, 5% CO2 for 72h. Cultures were then fixed and stained by addition of 50 uL of a solution containing 8% formaldehyde and 4 uM DRAQ5 DNA dye (BioStatus, UK) per well. […] Five images were collected per well for reliable statistical analysis. Automated image analysis was performed with a script developed on Acapella High Content Imaging and Analysis Software (PerkinElmer). Output: number of amastigotes per cell as infection level measurement.; assay type: functional, organism-based, Rattus norvegicus; conditions: H9c2, 4 h
[4] = test system: Trypanosoma cruzi; experiment: as §1, with “H2C9” for “Trypanosoma cruzi”, “H9c2 Host Cardiomyocytes.” for “Infected Cells.”, “Number” for “percentage”, “H9c2 Host Cardiomyocytes nuclei to determine drug-related cytotoxicity.” for “infected cells per well as a second infection marker.”; assay type: functional, organism-based, Rattus norvegicus; conditions: H9c2, 4 h
[5] = test system: Leishmania donovani; experiment: GSK_TCAKS: pIC50 Leishmania donovani viability assay using fluorescence intensity. Assay plates (1536-well) were prepared by adding 30nL per well of compound. For single shot assay, the final compound concentration was 5uM. […] Briefly, eGFP LdBOB axenic amastigotes were harvested, fixed and counted in a CASY cell counter (Roche-Applied Science). A final concentration of 1.5 * 10^5 cells per well were prepared in amastigote media containing 500 U/mL penicillin/streptomycin (Invitrogen) and 6uL was dispensed to each experimental well using a Multidrop Combi dispenser (Thermo Scientific). 6uL of assay media was dispensed to control columns used as reference for 100% compound response. Following incubation for 72 h at 37C, 5% CO2, 2 uL of resazurin was added to each well at a final concentration of 0.5 mM in phosphate buffered saline (PBS) with IGEPAL (Sigma-Aldrich), 0.05% (v/v).; assay type: functional, organism-based
[6] = test system: Leishmania donovani; experiment: (§2) GSK_TCAKS: pIC50 Leishmania donovani Imaging: Infected Macrophages. Assay plates (384-well) were prepared by adding 250nL of compound to each well. For single shot assay, the final compound concentration was 5 uM. […] Automated image analysis was performed with a script developed on Acapella High Content Imaging and Analysis Software (PerkinElmer). Output: Percent of infected macrophage cells were reported for each well.; assay type: functional, organism-based, Homo sapiens; conditions: THP-1
[7] = test system: Leishmania donovani; experiment: as §2, with “Amastigotes/Macrophages.” for “Infected Macrophages.”, “Average number” for “Percent”, “amastigotes per” for “infected”, “cell” for “cells”; assay type: functional, organism-based, Homo sapiens; conditions: THP-1
[8] = test system: Leishmania donovani; experiment: as §2, with “THP-1 Host” for “Infected”, “THP-1 cell count” for “Percent of infected macrophage cells”; assay type: functional, organism-based, Homo sapiens
[9] = test system: Trypanosoma brucei brucei; experiment: GSK_TCAKS: pIC50 Trypanosoma brucei viability assay using fluorescence intensity. Assay plates (1536-well) were prepared by dispensing 25nL of compound solution per well using an Echo acoustic dispenser (Labcyte).; assay type: functional, organism-based; conditions: Lister 427, 2 h
[10] = test system: Trypanosoma brucei brucei; experiment: GSK_TCAKS: pIC50 Trypanosoma brucei viability assay using luminiscence. Assay plates (1536-well) were prepared. T. brucei cultures were harvested and counted in a CASY cell counter. A parasite suspension was prepared at a final concentration of 5 * 10^4 cells/mL in complete HMI9 medium and 6uL was dispensed to all wells containing compounds using a Multidrop Combi dispenser. 6uL of HMI9 media with 0.4% DMSO were dispensed to control columns. Plates were incubated for 24 h at 37C, 5% CO2 then tempered for 10 min at room temperature. ATP content was quantified by adding 4 uL of CellTiter-Glo Reagent (Promega) according to the manufacturer's instructions. Luminescence was measured using a ViewLux.; assay type: functional, organism-based; conditions: Lister 427, CASY
[11] = GSK_TCAKS: pIC50 HepG2 human cell line viability assay using luminiscence. […] Seeding density was checked to ensure that new mono-layers were not more than 50% confluent at the time of harvesting. Cell suspension was added to 500 mL of the same medium at a final density of 1.2 * 10^5 cells/mL. This cell suspension was dispensed (25 uL, 3000 cells per well) into 384-well clear-bottom plates using a Multidrop Combi dispenser. Prior to addition of the cell suspension, the screening compounds (250 nL) were pre-dispensed into the plates with an Echo liquid handler. Plates were incubated for 48 h at 37C, 5% CO2. After incubation, plates equilibrated at room temperature for 30 min before proceeding to develop the luminescent signal. The signal developer, CellTiter-Glo Reagent, was allowed to equilibrate at room temperature for 30 min and added to the plates (25uL per well) using a Multidrop Combi dispenser. Plates were left for 10 min at room temperature for stabilization and then read using a ViewLux.; assay type: toxicity, cell-based
[12] = test system: NIH3T3; experiment: GSK_TCAKS: pIC50 NIH 3T3 cell line viability assay using luminiscence. Tissue culture surface treated assay plates (1536-well) were used. […] The 100% cells survival control was determined exposing the host-cells to a 0.5% DMSO concentration, whereas the 100% toxicity control was achieved by seeding the cells in presence of Amphotericin B at 50uM. Plates were incubated for four days at 37C, 5% CO2. The assay readout was developed by addition of 5uL of CellTiter-Glo Reagent following the manufacturer's instructions. Luminiscence was measured using a ViewLux.; assay type: functional, cell-based; conditions: Mus musculus, NIH3T3, 96 h
[13] = molecular target: Sterol 14-alpha demethylase (Trypanosoma cruzi (strain CL Brener), UniProt Q7Z1V1); experiment: GSK_TCAKS: pIC50 CYP51 from Trypanosoma cruzi.; assay type: functional
Chain of Sterol 14-alpha demethylase (Q7Z1V1 whole entry): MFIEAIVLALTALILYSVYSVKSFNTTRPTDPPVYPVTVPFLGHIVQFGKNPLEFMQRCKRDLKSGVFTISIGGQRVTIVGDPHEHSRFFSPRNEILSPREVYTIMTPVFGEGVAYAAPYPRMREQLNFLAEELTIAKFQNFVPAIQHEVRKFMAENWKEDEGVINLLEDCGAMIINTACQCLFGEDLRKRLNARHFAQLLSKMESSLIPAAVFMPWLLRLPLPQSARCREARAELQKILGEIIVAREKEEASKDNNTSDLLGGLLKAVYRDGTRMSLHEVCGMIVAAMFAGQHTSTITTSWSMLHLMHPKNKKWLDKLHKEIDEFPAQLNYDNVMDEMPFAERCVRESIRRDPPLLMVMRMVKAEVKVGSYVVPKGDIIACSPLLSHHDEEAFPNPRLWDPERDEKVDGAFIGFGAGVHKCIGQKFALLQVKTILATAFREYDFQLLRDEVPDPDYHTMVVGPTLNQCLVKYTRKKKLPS

Row | Compound | IC50 [1] | IC50 [2] | IC50 [3] | IC50 [4] | IC50 [5] | IC50 [6] | IC50 [7] | IC50 [8] | IC50 [9] | IC50 [10] | IC50 at 48 h [11] | IC50 [12] | IC50 [13]
1 | CNc1cc(Cn2c(C(=O)c3cc(C)cc(Cl)c3)c(C(C)C)c(=O)[nH]c2=O)ccn1 | 0.0398 µM | 0.02 µM | 0.02 µM | > 50.1 µM | > 50.1 µM | 20 µM | 12.6 µM | > 50.1 µM | 25.1 µM | 25.1 µM | > 100 µM | 10 µM | 0.0316 µM
2 | O=c1[nH]cnc2c([C@@H]3O[C@H](CO)[C@@H](O)[C@H]3O)n[nH]c12 [FORMYCIN B] | 0.141 µM | 0.501 µM | 0.316 µM | > 50.1 µM | 0.398 µM | 2 µM | 0.398 µM | > 50.1 µM | 0.00316 µM | 0.00501 µM | > 100 µM | > 50.1 µM | > 100 µM
3 | CC(C)(C)C(O)(CCc1ccc(Cl)cc1)Cn1cncn1 (centres undefined) [TEBUCONAZOLE] | 0.126 µM | 0.251 µM | 0.2 µM | > 50.1 µM | 3.16 µM | > 50.1 µM | > 50.1 µM | > 50.1 µM | > 39.8 µM | > 39.8 µM | > 100 µM | > 50.1 µM | 0.126 µM
